# From patent EP2276481B1, “USE OF BENZO-FUSED HETEROCYCLE SULFAMIDE DERIVATIVES FOR THE TREATMENT OF ANXIETY” (Janssen Pharmaceutica, N.V., priority 2008, dated 2009)
# Legend:
# Mouse = experiment: Four Plate Test, Mouse; assay type: in vivo; conditions: for Number of Punished Crossings % Change: change from vehicle control
# Excerpt: The Four Plate assay was run according to the procedure as described by Aron et al (Neuropharmacology, 10, 459-469, 1971). In this assay, the rodent experiences an electric shock upon crossing from one plate to another. Anxiolytics (such as benzodiazepines) increase the number of punished crossings.
# Animals were placed individually in a white plastic enclosure containing a floor consisting of 4 metal plates connected to an electric shock generator (Apelex : Type 011346). The mouse was left to explore freely for 15 seconds. Then, every time the mouse crossed from one plate to another, it received a weak electric shock (2.5 mA, 1.5 s). The number of punished crossings were counted during a 1 minute test. Ten (10) mice were used for each study group. The test was performed blind.
# (§1) Compound #8 was evaluated at 30 mg/kg, 60 mg/kg and 120 mg/kg doses, administered p.o. 60 minutes before the test, and compared with a vehicle control group. Compound #8 was homogenized and dispersed using a mortar and a pestle in 0.2% hydroxypropylmethylcellulose (HPMC) in distilled water, which served as the vehicle. As a positive control, Clobazam (32 mg/kg p.o.), was administered under the same experimental conditions. Clobazam as URBANYL®tablets (32 mg/kg p.o.) were dispersed in 0.2% hydroxypropylmethylcellulose (HPMC) in distilled water for administration. Each experiment therefore included 5 study groups of 10 mice each.
# Data were analyzed by comparing groups treated with compound #8 with groups treated with vehicle control using unpaired Student's t tests. Table 5: Effect of Compound #8 in Four Plate
# Male Rj:NMRI mice = experiment: Elevated Plus Maze, Mouse (EPM); assay type: in vivo; conditions: for Closed Arms Number of Entries % change / Open Arms Number of Entries % change / Open Arms Time Spent (sec) % change: change from vehicle control
# Excerpt: Rodents avoid open spaces (in the case of the assay apparatus, the open arms of an elevated plus-maze). Compounds which have anti-anxiety activity increase exploratory activity of the rodents in the open arms of the elevated plus-maze. The EPM assay was run according to the procedure as described by Handley and Mithani (Naunyn. Schmied. Arch. Pharmacol., 327, 1-5, 1984).
# Male Rj:NMRI mice, weighing 20 - 30 g (max. range per experiment = 5 g) at the beginning of the experiments, were obtained from Elevage Janvier, 53940 Le Genest-Saint-Isle, France and used in the assay. The animals were delivered to the laboratory at least 5 days before the experiments during which time they were acclimatized to laboratory conditions. The mice were housed in groups of 10 in Macrolon cages (25 x 19 x 13 cm) on wood litter (Litalabo-SPPS, 95100 Argenteuil, France) with free access to food (Code 113 - SAFE, 89290 Augy, France) and water until tested (or as indicated otherwise). The animal house was maintained under artificial lighting (12 hours) between 7:00 and 19:00 in a controlled ambient temperature of 21 ± 3°C, and relative humidity between 30-80%.
# The elevated plus-maze consisted of 4 arms of equal length and width (14 x 5 cm) arranged in the form of a plus sign (+). Two opposite arms were enclosed by 12 cm high walls (closed arms). The 2 other arms had no walls (open arms). The maze was raised 56 cm above the floor. A mouse was placed in the centre of the plus-maze and left to explore the maze for 5 minutes. The number of entries into the open and closed arms and the time spent in the open arms was recorded. Ten (10) mice were used for each study group. The test was performed blind.
# as §1, with “(16” for “(32”
# Data were analyzed by comparing groups treated with compound #8 with groups treated with vehicle control using unpaired Student's t tests. Table 4: Effect of Compound #8 in EPM
# [1] = 16 mg/kg p.o., positive control, same experimental conditions, t test vs vehicle p < 0.001
# [2] = 16 mg/kg p.o., positive control
# [3] = 30 mg/kg p.o. 60 minutes before the test
# [4] = 60 mg/kg p.o. 60 minutes before the test
# [5] = 120 mg/kg p.o. 60 minutes before the test
# [6] = 30 mg/kg p.o. 60 minutes before the test, 5 minutes in maze, t test vs vehicle (NS)
# [7] = 60 mg/kg p.o. 60 minutes before the test, 5 minutes in maze, t test vs vehicle p < 0.01
# [8] = 120 mg/kg p.o. 60 minutes before the test, 5 minutes in maze, t test vs vehicle p < 0.05
structure (smiles),measurement,setting,value
"CN1C(=O)CC(=O)N(c2ccccc2)c2cc(Cl)ccc21 [CLOBAZAM, Clobazam, reference compound]",Number of Punished Crossings Mean ± S.E.M.,"Mouse; 32 mg/kg p.o., positive control, same experimental conditions, t test vs vehicle p < 0.001",9.9 ± 1.2 (***)
same,Open Arms Number of Entries Mean ± S.E.M.,Male Rj:NMRI mice; [1],11.7 ± 1.1 (***)
same,Open Arms Time Spent (sec) Mean ± S.E.M.,Male Rj:NMRI mice; [1],120.1 ± 13.1 s
same,Closed Arms Number of Entries Mean ± S.E.M.,"Male Rj:NMRI mice; 16 mg/kg p.o., positive control, same experimental conditions, t test vs vehicle p < 0.05",11.9 ± 1.5 (*)
same,Closed Arms Number of Entries % change,Male Rj:NMRI mice; [2],+59%
same,Open Arms Number of Entries % change,Male Rj:NMRI mice; [2],+350%
same,Open Arms Time Spent (sec) % change,Male Rj:NMRI mice; [2],+567%
"NS(=O)(=O)NC[C@H]1COc2cc(Cl)ccc2O1 [Compound #8, (2S)-(-)-N-(6-Chloro-2,3-dihydro-benzo[1,4]dioxin-2-ylmethyl)-sulfamide]",Number of Punished Crossings Mean ± S.E.M.,"Mouse; 30 mg/kg p.o. 60 minutes before the test, 1 minute test, t test vs vehicle (NS)",4.5 ± 0.6 (NS)
same,Number of Punished Crossings % Change,Mouse; [3],+15%
same,Number of Punished Crossings Mean ± S.E.M.,"Mouse; 60 mg/kg p.o. 60 minutes before the test, 1 minute test, t test vs vehicle (NS)",4.5 ± 0.3 (NS)
same,Number of Punished Crossings % Change,Mouse; [4],+15%
same,Number of Punished Crossings Mean ± S.E.M.,"Mouse; 120 mg/kg p.o. 60 minutes before the test, 1 minute test, t test vs vehicle p < 0.01",6.6 ± 0.6 (**)
same,Number of Punished Crossings % Change,Mouse; [5],+69%
same,Closed Arms Number of Entries Mean ± S.E.M.,Male Rj:NMRI mice; [6],8.5 ± 0.9 (NS)
same,Open Arms Number of Entries Mean ± S.E.M.,Male Rj:NMRI mice; [6],3.9 ±0.7 (NS)
same,Open Arms Time Spent (sec) Mean ± S.E.M.,"Male Rj:NMRI mice; 30 mg/kg p.o. 60 minutes before the test, 5 minutes in maze, t test vs vehicle p < 0.01",44.6 ± 8.0 s
same,Closed Arms Number of Entries % change,Male Rj:NMRI mice; [3],+13%
same,Open Arms Number of Entries % change,Male Rj:NMRI mice; [3],+50%
same,Open Arms Time Spent (sec) % change,Male Rj:NMRI mice; [3],+148%
same,Closed Arms Number of Entries Mean ± S.E.M.,Male Rj:NMRI mice; [7],10.3 ± 0.8 (**)
same,Open Arms Number of Entries Mean ± S.E.M.,Male Rj:NMRI mice; [7],5.9 ± 1.0 (**)
same,Open Arms Time Spent (sec) Mean ± S.E.M.,Male Rj:NMRI mice; [7],54.1 ± 10.6 s
same,Closed Arms Number of Entries % change,Male Rj:NMRI mice; [4],+37%
same,Open Arms Number of Entries % change,Male Rj:NMRI mice; [4],+127%
same,Open Arms Time Spent (sec) % change,Male Rj:NMRI mice; [4],+201%
same,Open Arms Time Spent (sec) Mean ± S.E.M.,"Male Rj:NMRI mice; 120 mg/kg p.o. 60 minutes before the test, 5 minutes in maze, t test vs vehicle p < 0.01",38.6 ± 5.2 s
same,Closed Arms Number of Entries Mean ± S.E.M.,Male Rj:NMRI mice; [8],10.0 ± 1.1 (*)
same,Open Arms Number of Entries Mean ± S.E.M.,Male Rj:NMRI mice; [8],4.5 ± 0.6 (*)
same,Closed Arms Number of Entries % change,Male Rj:NMRI mice; [5],+33%
same,Open Arms Number of Entries % change,Male Rj:NMRI mice; [5],+73%
same,Open Arms Time Spent (sec) % change,Male Rj:NMRI mice; [5],+114%
